The supplement of paper PMC11061612

Assays:
[1] = system: SK-LU-1 (Lung Adenocarcinoma); assay: Bliss excess, mean over the matrix (fraction); higher = more synergy
Summary of the method: (§1)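 Cell lines grown in DMEM/F12 or RPMI with 10% FBS were plated in 1536-well plates and held 24 hours at 37°C, 5% CO2 before 72 hours of exposure to two-drug dose matrices, with DMSO typically at 0.2%. CellTiter-Glo 2.0 luminescence gave viability, which was converted to inhibition. Vehicle wells were set to 0 and blank wells to 1. Combination Emax is the second-highest inhibition in the matrix, and Bliss excess is the observed combination effect minus the expected EA + EB − EA·EB, where EA and EB are the single-agent effects.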

[2] = system: SKN (Other Solid Carcinomas); assay: as above
Summary of the method: as §1

[3] = system: SW982 (Other Solid Carcinomas); assay: combination Emax (second highest fraction inhibited in the dose matrix, 72 h); higher = more inhibition; extreme values may be limits of the assay
Summary of the method: as §1

[4] = system: NCI-H1355 (Lung Adenocarcinoma); assay: as above
Summary of the method: as §1

[5] = system: NCI-H1838 (Lung Adenocarcinoma); assay: as above
Summary of the method: as §1

[6] = system: LC-1-sq (Squamous Cell Lung Carcinoma); assay: as above
Summary of the method: as §1

[7] = system: COLO-668 (Small Cell Lung Carcinoma); assay: as above
Summary of the method: as §1

[8] = system: CADO-ES1 (Ewing's Sarcoma); assay: as above
Summary of the method: as §1

[9] = system: NCI-H2122 (Lung Adenocarcinoma); assay: as above
Summary of the method: as §1

[10] = system: HCC1937 (Breast Carcinoma); assay: as above
Summary of the method: as §1

[11] = system: MOG-G-UVW (Low Grade Glioma); assay: as above
Summary of the method: as §1

[12] = system: EFO-21 (Ovarian Carcinoma); assay: as above
Summary of the method: as §1

[13] = system: SW872 (Other Solid Carcinomas); assay: as above
Summary of the method: as §1

[14] = system: G-401 (Other Solid Carcinomas); assay: as above
Summary of the method: as §1

[15] = system: KMRC-1 (Kidney Carcinoma); assay: as above
Summary of the method: as §1

[16] = system: SNU-387 (Hepatocellular Carcinoma); assay: as above
Summary of the method: as §1

[17] = system: HCC2998 (Colorectal Carcinoma); assay: as above
Summary of the method: as §1

[18] = system: SKN (Other Solid Carcinomas); assay: as above
Summary of the method: as §1

[19] = system: NCI-H650 (Lung Adenocarcinoma); assay: as above
Summary of the method: as §1

[20] = system: DU-145 (Prostate Carcinoma); assay: as above
Summary of the method: as §1
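For Bliss excess, mean over the matrix in this document: after 72 h of two-drug dosing.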

Structure (SMILES)	Bliss excess [1]	Bliss excess [2]	combination Emax [3]	combination Emax [4]	combination Emax [5]	combination Emax [6]	combination Emax [7]	combination Emax [8]	combination Emax [9]	combination Emax [10]	combination Emax [11]	combination Emax [12]	combination Emax [13]	combination Emax [14]	combination Emax [15]	combination Emax [16]	combination Emax [17]	combination Emax [18]	combination Emax [19]	combination Emax [20]
COc1nnc2ccc(N3CCC(c4ccc(OCCN5CCN(C)C(=O)[C@H]5C)cc4)CC3)nn12 [AZD5153] + C=CCn1c(=O)c2cnc(Nc3ccc(N4CCN(C)CC4)cc3)nc2n1-c1cccc(C(C)(C)O)n1 [AZD1775] (first compound max 1 µM, partner max 1 µM)	-0.0461	-0.0027	0.825	0.57	0.441	0.665	0.665	0.387	0.993	0.472	0.711	0.51	0.593	0.914	0.358	0.469	0.92	0.687	0.487	0.316
CC(=O)c1c(C)c2cnc(Nc3ccc(N4CCNCC4)cn3)nc2n(C2CCCC2)c1=O [Palbociclib] + CC1(C)CCC(CN2CCN(c3ccc(C(=O)NS(=O)(=O)c4ccc(NCC5CCOCC5)c([N+](=O)[O-])c4)c(Oc4cnc5[nH]ccc5c4)c3)CC2)=C(c2ccc(Cl)cc2)C1 [Venetoclax] (first compound max 10 µM, 7x7, partner max 1 µM)	0.0024	-0.0402	0.57	0.242	0.279	0.166	0.114	0.678	0.688	0.0808	0.497	0.105	0.0843	0.849	0.162	0.129	0.416	0.342	0.172	0.0454
Cc1c2c(nn1C)CSCc1cc(n(C)n1)CSc1cc(c3ccccc3c1)OCCCc1c(C(=O)O)n(C)c3c-2c(Cl)ccc13 [AZD5991] + C1CN(CCC1(C(=O)N[C@@H](CCO)C2=CC=C(C=C2)Cl)N)C3=NC=NC4=C3C=CN4 [Capivasertib] (first compound max 1 µM, 7x7, partner max 3 µM)	-0.0042	-0.024	0.192	0.227	0.306	0.217	0.303	0.927	0.608	0.456	0.444	0.179	0.282	0.56	0.432	0.345	0.902	0.455	0.209	0.187
NC1(C(=O)N[C@@H](CCO)c2ccc(Cl)cc2)CCN(c2ncnc3[nH]ccc23)CC1 [Capivasertib] + CCN(CCO)CCCOc1ccc2c(Nc3cc(CC(=O)Nc4cccc(F)c4)[nH]n3)ncnc2c1 [AZD2811] (first compound max 10 µM, 7x7, partner max 1 µM)	-0.103	-0.0219	0.672	0.425	0.386	0.322	0.454	0.243	0.797	0.481	0.733	0.235	0.336	0.658	0.494	0.312	0.5	0.555	0.346	0.219
CS(=O)(=O)CCNCc1ccc(-c2ccc3ncnc(Nc4ccc(OCc5cccc(F)c5)c(Cl)c4)c3c2)o1 [Lapatinib] + C[C@@H](Oc1cc(-c2cnn(C3CCNCC3)c2)cnc1N)c1c(Cl)ccc(F)c1Cl [Crizotinib] (first compound max 10 µM, 7x7, partner max 10 µM)	-0.0582	-0.0289	0.968	0.564	0.436	0.931	0.665	0.774	0.962	0.674	0.842	0.371	0.496	0.942	0.952	0.93	0.938	0.743	0.615	0.286
NC1(C(=O)N[C@@H](CCO)c2ccc(Cl)cc2)CCN(c2ncnc3[nH]ccc23)CC1 [Capivasertib] + CC(=O)c1c(C)c2cnc(Nc3ccc(N4CCNCC4)cn3)nc2n(C2CCCC2)c1=O [Palbociclib] (first compound max 10 µM, 7x7, partner max 10 µM)	-0.0139	-0.0383	0.607	0.472	0.432	0.206	0.437	0.274	0.793	0.477	0.727	0.101	0.413	0.898	0.457	0.312	0.591	0.639	0.262	0.166
